According to patent US12692238B2, “Substituted pyridazinone herbicides” (FMC CORPORATION, priority 2020, dated 2026):

Assays:
Format in all cases: in vivo
[1] = tested on: barnyardgrass (Echinochloa crus-galli); test: Test A preemergence, barnyardgrass; details: 10 days
Excerpt: (§1) Seeds of plant species selected from barnyardgrass (Echinochloa crus-galli), blackgrass (Alopecurus myosuroides), corn (Zea mays), foxtail, giant (giant foxtail, Setaria faberi), foxtail, green (green foxtail, Setaria viridis), goosegrass (Eleusine indica), kochia (Bassia scoparia), oat, wild (wild oat, Avena fatua), palmer amaranth (pigweed, palmer, Amaranthus palmeri), redroot pigweed (Amaranthus retroflexus), ragweed (common ragweed, Ambrosia artemisiifolia), ryegrass, Italian (Italian ryegrass, Lolium multiflorum), and soybean (Glycine max) were planted into a blend of loam soil and sand and treated preemergence with a directed soil spray using test chemicals formulated in a non-phytotoxic solvent mixture which included a surfactant.
(§2) At the same time, plants selected from these crop and weed species and also wheat (Triticum aestivum), galium (catchweed bedstraw, Galium aparine) and horseweed (Erigeron canadensis) were planted in pots containing the same blend of loam soil and sand and treated with postemergence applications of test chemicals formulated in the same manner. Plants ranged in height from 2 to 10 cm and were in the one- to two-leaf stage for the postemergence treatment. Treated plants and untreated controls were maintained in a greenhouse for 10 days, after which time all treated plants were compared to untreated controls and visually evaluated for injury. Plant response ratings, summarized in Table A, are based on a 0 to 100 scale where 0 is no effect and 100 is complete control. A dash (-) response means no test result.

[2] = tested on: foxtail, green (green foxtail, Setaria viridis); test: Test A preemergence, foxtail, green; details: 0 to 100 scale, 10 days
Excerpt: as §1, §2

kochia (Bassia scoparia) [3] = test: Test A preemergence, kochia; details: 0 to 100 scale, 10 days
Excerpt: as §1, §2

[4] = tested on: redroot pigweed (Amaranthus retroflexus); test: Test A preemergence, redroot pigweed; details: 0 to 100 scale, 10 days
Excerpt: as §1, §2

[5] = tested on: ragweed (common ragweed, Ambrosia artemisiifolia); test: Test A preemergence, ragweed; details: 0 to 100 scale, 10 days
Excerpt: as §1, §2

[6] = tested on: ryegrass, Italian (Italian ryegrass, Lolium multiflorum); test: Test A preemergence, ryegrass, Italian; details: 0 to 100 scale, 10 days
Excerpt: as §1, §2

[7] = tested on: barnyardgrass (Echinochloa crus-galli); test: Test A postemergence, barnyardgrass; details: 10 days
Excerpt: as §1, §2

[8] = tested on: blackgrass (Alopecurus myosuroides); test: Test A postemergence, blackgrass; details: 10 days
Excerpt: as §1, §2

corn (Zea mays) = test: Test A postemergence, corn; details: 10 days
Excerpt: as §1, §2

[9] = tested on: foxtail, green (green foxtail, Setaria viridis); test: Test A postemergence, foxtail, green; details: 10 days
Excerpt: as §1, §2

kochia (Bassia scoparia) [10] = test: Test A postemergence, kochia; details: 10 days
Excerpt: as §1, §2

[11] = tested on: redroot pigweed (Amaranthus retroflexus); test: Test A postemergence, redroot pigweed; details: 10 days
Excerpt: as §1, §2

[12] = tested on: ragweed (common ragweed, Ambrosia artemisiifolia); test: Test A postemergence, ragweed; details: 10 days
Excerpt: as §1, §2

[13] = tested on: ryegrass, Italian (Italian ryegrass, Lolium multiflorum); test: Test A postemergence, ryegrass, Italian; details: 10 days
Excerpt: as §1, §2

[14] = tested on: wheat (Triticum aestivum); test: Test A postemergence, wheat; details: 10 days
Excerpt: as §1, §2

[15] = tested on: galium (catchweed bedstraw, Galium aparine); test: Test A postemergence, galium; details: 10 days
Excerpt: as §1, §2

[16] = tested on: barnyardgrass (Echinochloa crus-galli); test: Test B flooded paddy test, barnyardgrass; details: 250 g ai/ha, Flood; visually evaluated after 10 to 14 days
Description: (§3) Plant species in the flooded paddy test selected from barnyardgrass (Echinochloa crus-galli), ducksalad (Heteranthera limosa), rice (Oryza sativa), and sedge, umbrella (small-flower umbrella sedge, Cyperus difformis) were grown to the 2-leaf stage for testing. At time of treatment, test pots were flooded to 3 cm above the soil surface, treated by application of test compounds directly to the paddy water, and then maintained at that water depth for the duration of the test. Treated plants and controls were maintained in a greenhouse for 10 to 14 days, after which time all species were compared to controls and visually evaluated. Plant response ratings, summarized in Table B, are based on a scale of 0 to 100 where 0 is no effect and 100 is complete control. A dash (-) response means no test result.

[17] = tested on: ducksalad (Heteranthera limosa); test: Test B flooded paddy test, ducksalad; details: 250 g ai/ha, Flood; visually evaluated after 10 to 14 days
Description: as §3

rice (Oryza sativa) = test: Test B flooded paddy test, rice; details: 250 g ai/ha, Flood; visually evaluated after 10 to 14 days
Description: as §3

[18] = tested on: sedge, umbrella (small-flower umbrella sedge, Cyperus difformis); test: Test B flooded paddy test, sedge, umbrella; details: 250 g ai/ha, Flood; visually evaluated after 10 to 14 days
Description: as §3

[19] = 125 g ai/ha, 0 to 100 scale (0 no effect, 100 complete control)
[20] = Postemergence, 31 g ai/ha, 0 to 100 scale
[21] = Postemergence, 125 g ai/ha, 0 to 100 scale
[22] = 31 g ai/ha, postemergence, 0 to 100 scale (0 no effect, 100 complete control)

Row | Structure (SMILES) | Plant response rating, Barnyardgrass ([1]; 31 g ai/ha, 0 to 100 scale) | Plant response rating, Barnyardgrass [1, 19] | Plant response rating, Foxtail, Green ([2]; 31 g ai/ha) | Plant response rating, Foxtail, Green ([2]; 125 g ai/ha) | Plant response rating, Kochia (kochia (Bassia scoparia) [3]; 31 g ai/ha) | Plant response rating, Kochia (kochia (Bassia scoparia) [3]; 125 g ai/ha) | Plant response rating, Pigweed, Redroot ([4]; 31 g ai/ha) | Plant response rating, Pigweed, Redroot ([4]; 125 g ai/ha) | Plant response rating, Ragweed ([5]; 31 g ai/ha) | Plant response rating, Ragweed ([5]; 125 g ai/ha) | Plant response rating, Ryegrass, Italian ([6]; 31 g ai/ha) | Plant response rating, Ryegrass, Italian ([6]; 125 g ai/ha) | Plant response rating, Barnyardgrass [7, 21] | Plant response rating, Blackgrass [8, 21] | Plant response rating, Corn (corn (Zea mays); [21]) | Plant response rating, Foxtail, Green [9, 22] | Plant response rating, Foxtail, Green [9, 21] | Plant response rating, Kochia (kochia (Bassia scoparia) [10]; [22]) | Plant response rating, Kochia (kochia (Bassia scoparia) [10]; [21]) | Plant response rating, Pigweed, Redroot [11, 22] | also measured
1 | Cc1ccc2ccccc2c1-c1c(OCOC(=O)C(C)(C)C)c(Cl)nn(C)c1=O [Compound 7] | 50 | 90 | 60 | 100 | 10 | 70 | 100 | 100 | 50 | 90 | 50 | 90 | 80 | 30 | 10 | 10 | 70 | 30 | 70 | 80 | Plant response rating, Barnyardgrass [7, 20]: 10; Plant response rating, Blackgrass [8, 20]: 0; Plant response rating, Corn (corn (Zea mays); [20]): 10; Plant response rating, Pigweed, Redroot [11, 21]: 90; Plant response rating, Ragweed [12, 22]: 70; Plant response rating, Ragweed [12, 21]: 90; Plant response rating, Ryegrass, Italian [13, 22]: 50; Plant response rating, Ryegrass, Italian [13, 21]: 70; Plant response rating, Wheat [14, 22]: 0; Plant response rating, Wheat [14, 21]: 50; Plant response rating, Galium [15, 22]: 70; Plant response rating, Galium [15, 21]: 90; Plant response rating, Barnyardgrass (0 to 100 scale where 0 is no effect and 100 is complete control) [16]: 0; Plant response rating, Ducksalad (0 to 100 scale where 0 is no effect and 100 is complete control) [17]: 0; Plant response rating, Rice (0 to 100 scale where 0 is no effect and 100 is complete control) (rice (Oryza sativa)): 0; Plant response rating, Sedge, Umbrella (0 to 100 scale where 0 is no effect and 100 is complete control) [18]: 0
2 | Cc1cc(Cl)c2ccc(F)cc2c1-c1c(OCOC(=O)C(C)(C)C)c(C)nn(C)c1=O [Compound 30] | 0 | 80 | 20 | 100 | 20 | 20 | 80 | 100 | 80 | 90 | 100 | 100 | 50 | 80 | 10 | 30 | 80 | 10 | 30 | 80 | Plant response rating, Barnyardgrass [7, 22]: 20; Plant response rating, Blackgrass [8, 22]: 40; Plant response rating, Corn (corn (Zea mays); [22]): 0; Plant response rating, Pigweed, Redroot [11, 21]: 90; Plant response rating, Ragweed [12, 22]: 20; Plant response rating, Ragweed [12, 21]: 100; Plant response rating, Ryegrass, Italian [13, 22]: 80; Plant response rating, Ryegrass, Italian [13, 21]: 100; Plant response rating, Wheat [14, 22]: 20; Plant response rating, Wheat [14, 21]: 60; Plant response rating, Galium [15, 22]: 100; Plant response rating, Galium [15, 21]: 100; Plant response rating, Barnyardgrass (0 to 100 scale where 0 is no effect and 100 is complete control) [16]: 40; Plant response rating, Ducksalad (0 to 100 scale where 0 is no effect and 100 is complete control) [17]: 75; Plant response rating, Rice (0 to 100 scale where 0 is no effect and 100 is complete control) (rice (Oryza sativa)): 35; Plant response rating, Sedge, Umbrella (0 to 100 scale where 0 is no effect and 100 is complete control) [18]: 100
3 | Cc1ccc2ccccc2c1-c1c(OCOC(=O)C(C)C)c(Cl)nn(C)c1=O [Compound 6] | 0 | 0 | 0 | 50 | 10 | 50 | 90 | 100 | 10 | 80 | 20 | 70 | 50 | 40 | 0 | 0 | 60 | 10 | 60 | 60 | Plant response rating, Barnyardgrass [7, 20]: 20; Plant response rating, Blackgrass [8, 20]: 0; Plant response rating, Corn (corn (Zea mays); [20]): 0; Plant response rating, Pigweed, Redroot [11, 21]: 100; Plant response rating, Ragweed [12, 22]: 70; Plant response rating, Ragweed [12, 21]: 80; Plant response rating, Ryegrass, Italian [13, 22]: 50; Plant response rating, Ryegrass, Italian [13, 21]: 70; Plant response rating, Wheat [14, 22]: 0; Plant response rating, Wheat [14, 21]: 10; Plant response rating, Galium [15, 22]: 70; Plant response rating, Galium [15, 21]: 90; Plant response rating, Barnyardgrass (0 to 100 scale where 0 is no effect and 100 is complete control) [16]: 10; Plant response rating, Ducksalad (0 to 100 scale where 0 is no effect and 100 is complete control) [17]: 70; Plant response rating, Rice (0 to 100 scale where 0 is no effect and 100 is complete control) (rice (Oryza sativa)): 0; Plant response rating, Sedge, Umbrella (0 to 100 scale where 0 is no effect and 100 is complete control) [18]: 75
4 | Cc1ccc2ccc(F)cc2c1-c1c(OCOC(=O)C(C)(C)C)c(Cl)nn(C)c1=O [Compound 4] | 10 | 100 | 70 | 100 | 20 | 100 | 100 | 100 | 100 | 100 | 90 | 100 | 60 | 70 | 0 | 40 | 80 | 10 | 40 | 70 | Plant response rating, Barnyardgrass [7, 20]: 20; Plant response rating, Blackgrass [8, 20]: 20; Plant response rating, Corn (corn (Zea mays); [20]): 0; Plant response rating, Pigweed, Redroot [11, 21]: 100; Plant response rating, Ragweed [12, 22]: 50; Plant response rating, Ragweed [12, 21]: 100; Plant response rating, Ryegrass, Italian [13, 22]: 50; Plant response rating, Ryegrass, Italian [13, 21]: 90; Plant response rating, Wheat [14, 22]: 40; Plant response rating, Wheat [14, 21]: 70; Plant response rating, Galium [15, 22]: 70; Plant response rating, Galium [15, 21]: 100; Plant response rating, Barnyardgrass (0 to 100 scale where 0 is no effect and 100 is complete control) [16]: 75; Plant response rating, Ducksalad (0 to 100 scale where 0 is no effect and 100 is complete control) [17]: 95; Plant response rating, Rice (0 to 100 scale where 0 is no effect and 100 is complete control) (rice (Oryza sativa)): 35; Plant response rating, Sedge, Umbrella (0 to 100 scale where 0 is no effect and 100 is complete control) [18]: 95
